Literature values, collected in US4033823A, “Process to produce lysocellin” (Hoffmann-La Roche Inc., priority 1976, dated 1977).

How the values were obtained:
Bacillus subtilis [1] = details: Bacillus subtilis grown on liquid medium
[2] = test system: antibiotic resistant Staphylococcus aureus
staphylococcus aureus = details: intraperitoneal administration
[3] = 66% dimethylformamide
Bacillus subtilis [4] = test system: Bacillus subtilis
[5] = test system: Antibiotic resistant E. coli; details: E. coli resistant to streptomycin, chloramphenicol, kanamycin, tetracyclin and sulfonamide
[6] = test system: Antibiotic resistant S. aureus; details: S. aureus resistant to streptomycin, erythromycin, chloramphenicol and penicillin
fungi = details: some fungi
[7] = test system: Staphylococcus aureus FDA 209P
[8] = mice, intraperitoneally

Substance: Lysocellin
- Antimicrobial activity (gram-positive bacteria): active
- Minimum inhibitory Concentration (Mycobacterium smegmatis): 20 µg/mL
- bacterial lysis (Bacillus subtilis [1]): caused bacterial lysis
- Antimicrobial activity (gram-negative bacteria): not active
- Antimicrobial activity [2]: active
- Minimum inhibitory Concentration (Escherichia coli): > 100 µg/mL
- activity against staphylococcus aureus infection in mice (staphylococcus aureus): inactive
- Minimum inhibitory Concentration (Fusarium oxysporum): 100 µg/mL
- pKa' [3]: 6.6
- Minimum inhibitory Concentration (Helminthosporium oryzae): 50 µg/mL
- Minimum inhibitory Concentration (Bacillus subtilis [4]): 10 µg/mL
- Minimum inhibitory Concentration (Pseudomonas aeruginosa): > 100 µg/mL
- Minimum inhibitory Concentration (Shigella dysenteriae): > 100 µg/mL
- Minimum inhibitory Concentration (Alternaria kikuchiana): 100 µg/mL
- Minimum inhibitory Concentration [5]: > 100 µg/mL
- Minimum inhibitory Concentration (Botrytis cinerea): 50 µg/mL
- Minimum inhibitory Concentration (Salmonella typhimurium): > 100 µg/mL
- Minimum inhibitory Concentration [6]: 4 µg/mL
- Antimicrobial activity (fungi): active against some fungi
- Minimum inhibitory Concentration [7]: 10 µg/mL
- LD50 [8]: about 70 mg/kg
- Minimum inhibitory Concentration (Sarcina lutea): 10 µg/mL
